The text below walks through data of ChEMBL document CHEMBL1201862, “PubChem BioAssay data set” (2004).

Calls of active or inactive are those of the source.

Assay [1] addresses FAD-linked sulfhydryl oxidase ALR (Homo sapiens, UniProt P55789). The experiment in a line: inhibitors of human ALR sulfhydryl oxidase, dose response, biochemical, H2O2 detection, luminescence, cherry-pick (AID 493248).
Assay [2] concerns the target T1, Zinc finger protein mex-5 (Caenorhabditis elegans, UniProt Q9XUB2).
T1 sequence (Q9XUB2 whole entry): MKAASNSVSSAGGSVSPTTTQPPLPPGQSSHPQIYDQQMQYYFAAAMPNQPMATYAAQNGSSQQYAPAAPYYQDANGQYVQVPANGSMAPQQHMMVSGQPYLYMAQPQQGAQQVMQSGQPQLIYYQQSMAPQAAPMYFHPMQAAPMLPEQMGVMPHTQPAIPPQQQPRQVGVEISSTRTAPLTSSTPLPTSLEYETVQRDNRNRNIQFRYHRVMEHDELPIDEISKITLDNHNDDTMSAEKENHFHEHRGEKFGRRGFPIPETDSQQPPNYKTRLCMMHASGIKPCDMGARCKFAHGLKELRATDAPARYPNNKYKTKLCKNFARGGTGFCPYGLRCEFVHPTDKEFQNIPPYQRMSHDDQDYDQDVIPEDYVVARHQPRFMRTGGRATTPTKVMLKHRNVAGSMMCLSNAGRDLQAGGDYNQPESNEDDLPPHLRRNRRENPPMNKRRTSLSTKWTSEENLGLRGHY
The experiment in a line: MEX-5/TCR-2 RNA interaction inhibitors, dose response, biochemical, C. elegans, fluorescence polarization (AID 1960).

For assay [3], the target named is T2, RNA-binding protein pos-1 (Caenorhabditis elegans, UniProt G5EF15).
T2 sequence (G5EF15 whole entry): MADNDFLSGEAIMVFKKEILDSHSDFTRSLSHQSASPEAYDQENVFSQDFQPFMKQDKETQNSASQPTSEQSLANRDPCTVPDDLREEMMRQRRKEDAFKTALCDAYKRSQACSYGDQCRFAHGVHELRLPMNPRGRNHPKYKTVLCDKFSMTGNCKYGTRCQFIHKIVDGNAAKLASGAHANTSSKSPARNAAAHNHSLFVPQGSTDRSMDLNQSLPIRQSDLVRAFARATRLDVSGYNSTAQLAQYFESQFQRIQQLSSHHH
In words: inhibitors of POS-1/mex-3 RNA binding, dose response, biochemical, fluorescence polarization (AID 1964).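 Further: purified POS-1 fused to maltose binding protein made in E. coli; potency of compounds blocking POS-1 binding to fluorescent RNA.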 In general terms: In fluorescence polarisation assays a small probe gives low polarisation when free and higher when bound to something large.

The nature of assay [4]: Luminescence Cell-Based Dose Retest to Confirm Inhibitors of Cancer Stem Cells. [Related pubchem assays (depositor defined):AID2717, AID2721]. Type of assay: functional. The settings on record: Homo sapiens.
Assay [5] is described as follows: HEp-2 cell cytotoxicity, dose response, cytotoxicity control for RSV inhibitor project, HTS (AID 2410). Type of assay: functional. The settings on record: human respiratory syncytial virus.
Assay [6] in a line: cytotoxicity toward NIH3T3 fibroblasts, dose response, counter-screen, cell-based, ATP luminescence, mouse fibroblasts (AID 2010).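 Further: cells exposed to compound for about 90 hours before reading.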 Type of assay: functional. (In general: A counterscreen serves to expose hits that act by an unwanted route or on another target.)
Assay [7] in a line: inhibitors of intracellular T. cruzi replication, confirmation, NIH3T3 host cells, beta-gal luminescence (AID 2044).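 Further: intracellular parasites grown in NIH/3T3 mouse fibroblasts as host cells; luminescent beta-galactosidase reporter signal from transgenic T. cruzi replicating inside host cells; inhibitors lower the luminescence signal.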 The format is functional, cell-based.
Assay [8] addresses T3, Rac GTPase-activating protein 1 (Homo sapiens, UniProt Q9H0H5).
T3 sequence (Q9H0H5 whole entry): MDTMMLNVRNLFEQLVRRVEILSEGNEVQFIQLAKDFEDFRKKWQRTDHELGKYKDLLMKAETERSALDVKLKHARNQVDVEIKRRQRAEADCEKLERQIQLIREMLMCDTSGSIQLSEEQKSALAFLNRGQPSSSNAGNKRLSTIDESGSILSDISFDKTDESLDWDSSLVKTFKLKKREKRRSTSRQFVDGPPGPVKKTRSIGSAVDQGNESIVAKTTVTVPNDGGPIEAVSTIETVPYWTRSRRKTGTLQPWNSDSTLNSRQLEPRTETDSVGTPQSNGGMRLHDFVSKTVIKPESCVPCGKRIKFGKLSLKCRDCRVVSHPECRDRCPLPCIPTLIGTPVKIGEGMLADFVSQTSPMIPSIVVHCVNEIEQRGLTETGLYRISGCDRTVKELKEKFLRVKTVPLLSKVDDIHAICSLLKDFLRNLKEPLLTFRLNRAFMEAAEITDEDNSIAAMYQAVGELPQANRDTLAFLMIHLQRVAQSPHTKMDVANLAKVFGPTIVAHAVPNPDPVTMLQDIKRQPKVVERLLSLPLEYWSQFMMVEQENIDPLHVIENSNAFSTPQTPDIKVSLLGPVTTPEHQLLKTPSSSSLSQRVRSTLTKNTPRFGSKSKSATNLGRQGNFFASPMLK
The experiment in a line: MgcRacGAP GTPase-activating activity inhibitors, confirmation, biochemical, ADP Hunter fluorescence, primary and confirmatory (AID 624330). The format is functional.

The next assay deals with INS1. In words: beta cell apoptosis inhibitors, cytokine rescue, dose response, luminescence, retest (AID 449756).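 Further: cell death triggered by IL-1 beta plus TNF-alpha plus IFN-gamma mixture; protective hits raise ATP signal compared with cytokine alone wells.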 The format is functional, cell-based. The settings on record: Rattus norvegicus.
The target of assay [9] is T4, Heat shock factor protein 1 (Mus musculus, UniProt P38532).
T4 sequence (P38532 whole entry): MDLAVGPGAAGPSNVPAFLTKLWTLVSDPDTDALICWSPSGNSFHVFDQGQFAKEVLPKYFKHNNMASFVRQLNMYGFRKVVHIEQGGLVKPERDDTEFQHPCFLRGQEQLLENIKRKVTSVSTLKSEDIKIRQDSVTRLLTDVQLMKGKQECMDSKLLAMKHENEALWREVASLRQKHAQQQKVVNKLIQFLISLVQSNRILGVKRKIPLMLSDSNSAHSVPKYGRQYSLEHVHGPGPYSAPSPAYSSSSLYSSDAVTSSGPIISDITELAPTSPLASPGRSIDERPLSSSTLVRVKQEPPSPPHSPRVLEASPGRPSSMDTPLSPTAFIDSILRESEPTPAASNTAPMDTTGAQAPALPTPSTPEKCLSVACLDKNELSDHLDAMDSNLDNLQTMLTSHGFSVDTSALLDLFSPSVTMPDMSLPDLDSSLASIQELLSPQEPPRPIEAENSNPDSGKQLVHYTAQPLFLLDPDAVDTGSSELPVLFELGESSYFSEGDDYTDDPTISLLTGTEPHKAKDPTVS
The experiment in a line: inhibition of MG132-induced HSE-luciferase signal, confirmation, cell-based, NIH3T3, luminescence, dose retest (AID 2382).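 Further: NIH3T3 fibroblasts with HSF1-driven luciferase reporter stressed by proteasome inhibitor MG132; luminescence from HSF1-driven luciferase expression after 8 hours of MG132 stress.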 The format is functional.

A further assay addresses Cytochrome P450 2C9 (Homo sapiens, UniProt P11712).
For assay [10], the target named is Luciferin 4-monooxygenase (Photinus pyralis, UniProt P08659). In words: firefly luciferase enzyme inhibitors, dose response, biochemical, luminescence (AID 1891).
Assay [11] in a line: Luminescence Cell-Based Dose Confirmation HTS to Identify Inhibitors of Platelet Dense Granule Release. [Related pubchem assays: 1663 (Primary HTS), 1678 (Summary of Project)]. The format is functional.
The subject of a further assay is H4. In words: Luminescence Cell-Based Dose Response HTS to Identify Activators of 5'UTR Stem-Loop Driven Prion Protein mRNA Translation in H4 Neuroglioblastoma Cells. [Related pubchem assays: 1829 (Project Summary), 1814 (Primary HTS)]. The format is functional. The settings on record: Homo sapiens.

Chain of FAD-linked sulfhydryl oxidase ALR (P55789 whole entry): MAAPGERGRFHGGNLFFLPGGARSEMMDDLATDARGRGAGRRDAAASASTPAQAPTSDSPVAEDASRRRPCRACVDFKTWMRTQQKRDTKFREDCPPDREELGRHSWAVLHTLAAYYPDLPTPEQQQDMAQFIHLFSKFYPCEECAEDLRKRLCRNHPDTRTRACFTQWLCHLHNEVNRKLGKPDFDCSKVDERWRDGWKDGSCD
Chain of Cytochrome P450 2C9 (P11712 whole entry): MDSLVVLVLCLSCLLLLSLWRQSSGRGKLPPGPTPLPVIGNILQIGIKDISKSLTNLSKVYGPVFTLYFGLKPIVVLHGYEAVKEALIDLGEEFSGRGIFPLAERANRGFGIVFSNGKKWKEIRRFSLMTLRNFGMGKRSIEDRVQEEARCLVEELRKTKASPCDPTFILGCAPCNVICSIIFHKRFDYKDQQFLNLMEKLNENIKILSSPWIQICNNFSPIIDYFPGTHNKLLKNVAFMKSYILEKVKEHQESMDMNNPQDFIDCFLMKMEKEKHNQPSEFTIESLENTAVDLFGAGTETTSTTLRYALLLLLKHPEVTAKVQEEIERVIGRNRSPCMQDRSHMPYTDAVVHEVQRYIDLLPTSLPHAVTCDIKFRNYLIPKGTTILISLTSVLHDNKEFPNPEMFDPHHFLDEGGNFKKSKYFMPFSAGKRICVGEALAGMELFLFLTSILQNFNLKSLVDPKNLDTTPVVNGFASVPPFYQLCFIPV
Chain of Luciferin 4-monooxygenase (P08659 whole entry): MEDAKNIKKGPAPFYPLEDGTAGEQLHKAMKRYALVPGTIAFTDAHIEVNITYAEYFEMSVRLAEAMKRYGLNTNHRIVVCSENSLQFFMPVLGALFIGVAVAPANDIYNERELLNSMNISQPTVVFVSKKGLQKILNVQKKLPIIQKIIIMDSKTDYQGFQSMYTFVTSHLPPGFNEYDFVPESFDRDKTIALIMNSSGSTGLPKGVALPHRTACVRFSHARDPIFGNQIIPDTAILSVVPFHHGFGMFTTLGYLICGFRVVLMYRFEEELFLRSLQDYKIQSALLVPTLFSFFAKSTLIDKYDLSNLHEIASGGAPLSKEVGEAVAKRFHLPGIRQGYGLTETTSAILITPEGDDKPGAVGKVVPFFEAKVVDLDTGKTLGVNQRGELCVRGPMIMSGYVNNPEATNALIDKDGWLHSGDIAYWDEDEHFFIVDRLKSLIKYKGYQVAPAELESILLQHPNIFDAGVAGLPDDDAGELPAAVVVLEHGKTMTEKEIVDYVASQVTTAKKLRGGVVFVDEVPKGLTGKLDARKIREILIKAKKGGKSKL

What is called AC50 is the midpoint of the concentration-response curve, whichever way the signal moves. With `CN(C)S(=O)(=O)c1ccc(-c2cn3ccccc3n2)cc1`, the AC50 in assay [1] was 2.05 µM (active). Usually EC50 stands for the concentration at which the effect is half-maximal. Turning to `CC(C)CNC(=O)C1Nc2ccccc2C2C=CCC12` (configuration not stated), the EC50 in assay [2] and in assay [3] was > 300 µM (not active) in each case. Regarding `N#C/C(=C\N1CCN(Cc2ccc3c(c2)OCO3)CC1)c1nc2ccccc2s1`, the EC50 in assay [2] and in [3] was > 300 µM (not active) each time. Regarding `Cc1cc(C=C2C(=O)N(C)C(=S)N(C)C2=O)c(C)n1C1CCCC1`, the figures for the 50% effective concentration (EC50) in assay [2] and in assay [3] were 129 µM (active) and 189 µM (active), respectively. Usually CC50 stands for the concentration at which the toxic effect on the cells reaches its halfway point. For `O=C1C=C(c2ccc(Cl)c(C(F)(F)F)c2)C[C@@H](c2ccc(Cl)cc2)C1`, the AC50 in [4] is 3.41 µM (active). Moreover, the cytotoxic concentration (CC50) in assay [5] is 12.1 µM (active). Take `COc1ccc(OC)c(Nc2nc(N(C)c3ccccc3)nc(N)c2[N+](=O)[O-])c1`: the figures for the EC50 in assay [6] and in assay [7] were > 30 µM (not active) and 0.888 µM (active), respectively. Also, the CC50 in assay [5] is > 50 µM (active).

What is called IC50 is the point on the concentration scale where inhibition reaches its midpoint. On to `COc1ccccc1CNCC(=O)N1CC(=O)Nc2ccccc21`, for which, in assay [8], the IC50 was 143 µM (active). `COc1cc2c3nnc(-c4ccccc4)c-3cn(Cc3ccc(F)cc3)c2cc1OC`: the EC50 in assay [2] and in assay [3] was > 300 µM (not active) in each case.

`COc1cc(/C=C/C(=O)OCc2cn3cc(Cl)ccc3n2)ccc1O`: the IC50 in [8] was 45.5 µM (active). For `COc1cc(/C=C/C(=O)OCC(=O)Nc2ccc3c(c2)OCCO3)ccc1O`, in assay [8], the IC50 was 39.8 µM (active). In the case of `COC(=O)c1c(NC(=O)C2CC=CCC2C(=O)O)sc(C(N)=O)c1C` (configuration not stated), the AC50 in [1] is 3.13 µM (active). In the case of `CCn1c2ccccc2c2nnc(SCc3ccccc3)nc21`, the CC50 in assay [5] is 34.6 µM (active). Still for that read-out and setting: in the case of `O=C(O)c1ccc(NC(=O)c2cn(-c3ccccc3)nc2-c2ccc(Br)cc2)cc1` it was 21 µM (active). For `CCC(Sc1nc(C)cc(C)n1)C(=O)NC1=NN=C(c2ccc(C)cc2)CS1` (configuration not stated), the AC50 in the assay on INS1 is 4.8 µM (active). For the same molecule, the EC50 in assay [9] was 12.2 µM (active). Turning to `CC(=O)Nc1ccc(OC(=O)Cc2ccc(Cl)cc2)cc1`, the IC50 in assay [8] was 23.4 µM (active).

In the case of `COc1cc(C2C(C#N)=C(N)OC3=C2C(=O)CC(C)(C)C3)cc2c1OCO2` (configuration not stated), the concentration for a half-maximal effect (EC50) in assay [2] and in assay [3] was > 300 µM (not active) each time. Turning to `Cc1ccc(O)c(CCc2ccc(O)cc2)n1`, the concentration at half-maximal activity (AC50) in [1] was 2.64 µM (active). As for `CCN(CC)S(=O)(=O)c1ccc(NCC2COc3ccccc3O2)c([N+](=O)[O-])c1` (configuration not stated), in [5], the CC50 is 13 µM (active). `CCOc1cc(/C=C(\C#N)C(=O)NCC2CCCO2)ccc1O` (configuration not stated): the IC50 in assay [8] is 41.5 µM (active).

In the case of `CCOC(=O)Cc1csc(NC(=O)/C=C/c2ccccc2Cl)n1`, the CC50 in [5] is 18.9 µM (active). Take `CCn1c(=O)c(C(=O)CN(C)Cc2cccc(OC)c2OC)c(N)n(Cc2ccccc2)c1=O`: the IC50 in assay [8] was 83.9 µM (active). For `CC1=C(C#N)C(=O)N(C)C(=O)/C1=C\NNc1ccc(C)c(C)c1`, the EC50 in assay [2] is 40.6 µM (active); in [3], > 300 µM (not active). As to `NNC(=O)c1sc(-c2ccc(Cl)cc2)cc1N`, the AC50 in [1] is 2.39 µM (active).

In the case of `O=C(CN1CCN(c2ccccc2)CC1)Nc1ccccc1Cl`, in assay [1], the AC50 was 6.68 µM (active). Still for that read-out and setting: next, `COc1cc(NS(=O)(=O)c2ccc(NC(=O)NC3CCCCC3)cc2)nc(OC)n1`: 3.49 µM (active). For `COc1ccc(NC(S)=NCC2CCN(c3ccc(OC)cc3)C2)cc1` (configuration not stated), the IC50 in assay [8] was 39.4 µM (active).

On to `Cc1cccc(NC(=O)CC2Nc3cccc4cccc(c34)NC2=O)c1` (configuration not stated), for which the AC50 on Cytochrome P450 2C9 was 12.6 µM (inconclusive). For the same molecule, the cytotoxic concentration (CC50) in [5] was > 50 µM (active). Consider `Oc1c2c(nc3cc(-c4cccc(Cl)c4)nn13)CCCC2`, for which the CC50 in [5] was 39.3 µM (active). Take `Cc1cccc(-n2c(=O)c3ccccc3n3c(S)nnc23)c1C`: the half-inhibitory concentration (IC50) in assay [8] was 40.7 µM (active). For `CC(=O)c1cccc(Oc2cc(NN3CCCCC3)c([N+](=O)[O-])cc2[N+](=O)[O-])c1`, the AC50 in [1] was 0.471 µM (active). `N#C/C(=N\Nc1ccc(Cl)cc1)C(=O)c1ccsc1`: the EC50 was 10.8 µM (active) in assay [2] and 81.6 µM (active) in assay [3]. As for `COc1ccc(-n2nc3c(=O)[nH][nH]c3cc2=O)cc1`, the EC50 is 3.67 µM (active) in [2] and 13.1 µM (active) in assay [3]. `Cc1csc(/C(=N/OC(=O)c2ccco2)C(N)=O)n1`: in [1], the AC50 is 0.252 µM (active).

Turning to `COc1cc(/C=N/NC(=O)c2nonc2C)ccc1O`, the values for the EC50 in assay [10] and in assay [11] were 23.5 µM (active) and 4.42 µM (active), respectively. The IC50 in [8] is 28.8 µM (active). Take `CCSc1ncc(/C=N/Nc2ccc([N+](=O)[O-])cc2)n1C`: the EC50 in the assay with H4 was 0.793 µM (active).

As for `N#Cc1c(N)nc(SCc2ccccc2)c(C#N)c1-c1ccco1`, the EC50 in assay [2] and in assay [3] was > 300 µM (not active) each time.
